Paper PMC5713674, “Meditope–Fab interaction: threading the hole” (Acta Crystallographica. Section F, Structural Biology …, 2017)
pKd: −log10 of the molar value. Like-named read-outs stand apart in the source and are kept apart here.

Legend:
cetuximab [1] = system: cetuximab; parameters: method as in Bzymek, Ma et al. (2016); conditions: SPR, 25°C, pH 7.4; ref Bzymek, Ma et al. (2016); cited from earlier work
cetuximab [2] = experiment: Surface plasmon resonance (Biacore T100) binding kinetics of meditope variants to immobilised cetuximab IgG; conditions: 25°C; for k a / k d: pH 7.4, HBS-EP+
Description: All surface plasmon resonance (SPR) experiments were performed on a GE Biacore T100 instrument (GE Healthcare) at 25°C as described previously (Bzymek, Avery et al., 2016[▸]; Bzymek, Ma et al., 2016[▸]). Briefly, cetuximab IgG ligand was amine-coupled to CM5 chips using acetate buffer pH 5.5 at a density of 5000 RU. Analytes were prepared in GE buffer HBS-EP+ [10 mM HEPES pH 7.4, 150 mM NaCl, 3 mM EDTA, 0.05%(v/v) surfactant P20]. Kinetics experiments were carried out at a flow rate of 30 µl min^−1 using HBS-EP+ as both the running and regeneration buffer. Experimental data were processed using Biacore T100 Evaluation software v.2.0.1. Purified peptides were dissolved in water and extensively dialyzed to remove any residual TFA, and their concentration was determined as described previously (Bzymek, Ma et al., 2016[▸]).

cetuximab [3] = experiment: as above; conditions: SPR, 25°C, at pH 5.5

## CQFDLSTRRLKC
Cetuximab [1]
  k a: 8.8 M^−1 s^−1 × 10^4

## CCCCNC(=N)NCCC[C@@H]1NC(=O)[C@H]([C@@H](C)O)NC(=O)[C@H](CO)NC(=O)[C@H](CC(C)C)NC(=O)[C@H](CC(=O)O)NC(=O)[C@H](Cc2ccccc2)NC(=O)[C@H](CCC(N)=O)NC(=O)CCCCCCNC(=O)[C@H](CCCCN)NC(=O)[C@H](CC(C)C)NC(=O)[C@H](CCCNC(=N)N)NC1=O [(AHA)QFDLSTR(nBu)RLK, aminoheptanoic acid-linked n-butylarginine meditope variant]
Cetuximab [2]; SPR
  k a: 2.2 M^−1 s^−1 × 10^4
  k d: 0.060 s⁻¹
Cetuximab [2]; t = ln(2)/k d, HBS-EP+ pH 7.4
  change of half-life of the complex versus nonmodified AHA-cyclized meditope (in words): slightly reduced

## CC(C)C[C@@H]1NC(=O)[C@H](CCCNC(=N)N)NC(=O)[C@H](CCCNC(=N)NCCCN)NC(=O)[C@H]([C@@H](C)O)NC(=O)[C@H](CO)NC(=O)[C@H](CC(C)C)NC(=O)[C@H](CC(=O)O)NC(=O)[C@H](Cc2ccccc2)NC(=O)[C@H](CCC(N)=O)NC(=O)CCCCCCNC(=O)[C@H](CCCCN)NC1=O [(AHA)QFDLSTR(PrNH2)RLK, aminoheptanoic acid-linked N-(3-aminopropyl)-L-arginine meditope variant]
Cetuximab [2]; SPR
  k a: 1.2 M^−1 s^−1 × 10^4
  k d: 0.110 s⁻¹

## CC(C)C[C@@H]1NC(=O)[C@H](CCCNC(=N)N)NC(=O)[C@H](CCCNC(=N)NCCC(=O)O)NC(=O)[C@H]([C@@H](C)O)NC(=O)[C@H](CO)NC(=O)[C@H](CC(C)C)NC(=O)[C@H](CC(=O)O)NC(=O)[C@H](Cc2ccccc2)NC(=O)[C@H](CCC(N)=O)NC(=O)CCCCCCNC(=O)[C@H](CCCCN)NC1=O [(AHA)QFDLSTR(EtCOOH)RLK, aminoheptanoic acid-linked N-carboxyethylarginine meditope variant]
Cetuximab [3]
  pKd: 4.49
  k a: 0.06 M^−1 s^−1 × 10^4
  k d: 0.020 s⁻¹

## CC(C)C[C@@H]1NC(=O)[C@H](CCCNC(=N)N)NC(=O)[C@H](CCCNC(=N)NCCCO)NC(=O)[C@H]([C@@H](C)O)NC(=O)[C@H](CO)NC(=O)[C@H](CC(C)C)NC(=O)[C@H](CC(=O)O)NC(=O)[C@H](Cc2ccccc2)NC(=O)[C@H](CCC(N)=O)NC(=O)CCCCCCNC(=O)[C@H](CCCCN)NC1=O [(AHA)QFDLSTR(PrOH)RLK, aminoheptanoic acid-linked N-(3-hydroxypropyl)-L-arginine meditope variant]
Cetuximab [2]; SPR
  k a: 1.2 M^−1 s^−1 × 10^4
  k d: 0.027 s⁻¹
Cetuximab [2]; t = ln(2)/k d, HBS-EP+ pH 7.4
  increase in the half-life of the complex over the nonmodified AHA-cyclized meditope: 1.7 fold

## CCCCCCCCNC(=N)NCCC[C@@H]1NC(=O)[C@H]([C@@H](C)O)NC(=O)[C@H](CO)NC(=O)[C@H](CC(C)C)NC(=O)[C@H](CC(=O)O)NC(=O)[C@H](Cc2ccccc2)NC(=O)[C@H](CCC(N)=O)NC(=O)CCCCCCNC(=O)[C@H](CCCCN)NC(=O)[C@H](CC(C)C)NC(=O)[C@H](CCCNC(=N)N)NC1=O [(AHA)QFDLSTR(nOc)RLK, aminoheptanoic acid-linked n-octylarginine meditope variant]
Cetuximab [2]; SPR
  k a: 0.93 M^−1 s^−1 × 10^4
  k d: 0.079 s⁻¹
Cetuximab [2]; t = ln(2)/k d, HBS-EP+ pH 7.4
  change of half-life of the complex versus nonmodified AHA-cyclized meditope (in words): slightly reduced

## CC(C)C[C@@H]1NC(=O)[C@H](CCCNC(=N)N)NC(=O)[C@H](CCCNC(=N)N)NC(=O)[C@H]([C@@H](C)O)NC(=O)[C@H](CO)NC(=O)[C@H](CC(C)C)NC(=O)[C@H](CC(=O)O)NC(=O)[C@H](Cc2ccccc2)NC(=O)[C@H](CCC(N)=O)NC(=O)CCCCCCNC(=O)[C@H](CCCCN)NC1=O [reference compound]
Cetuximab [2]; SPR, pH 7.4
  k a (on-rate): 25000 M⁻¹ s⁻¹
Cetuximab [2]; SPR
  k a: 2.5 M^−1 s^−1 × 10^4
  k d: 0.046 s⁻¹
Cetuximab [3]
  k a: 2.0 M^−1 s^−1 × 10^4
  k d: 0.075 s⁻¹
